From PubChem BioAssay (NCI)
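Dose response: 5 concentrations. Exposure: 48 h. Format: 96-well plates. Endpoint: linear interpolation; highest concentration if not reached. The concentration for 50% growth inhibition is given as GI50. The concentration for full growth arrest is given as TGI.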

Experiments:
Assay in all cases: growth of human tumour cells (NCI), 48 h
[1] = test system: SF-295 CNS
[2] = test system: CAKI-1 renal
[3] = test system: MDA-MB-231 breast
[4] = test system: SK-MEL-2 melanoma
[5] = test system: NCI/ADR-RES ovarian
[6] = test system: COLO 205 colon
[7] = test system: EKVX NSCLC
[8] = test system: U251 CNS
[9] = test system: HOP-62 NSCLC
[10] = test system: A498 renal

| SMILES | GI50 [1] | TGI [1] | GI50 [2] | TGI [2] | GI50 [3] | TGI [3] | GI50 [4] | TGI [4] | GI50 [5] | TGI [5] | GI50 [6] | TGI [6] | GI50 [7] | TGI [7] | GI50 [8] | TGI [8] | GI50 [9] | TGI [9] | GI50 [10] | TGI [10] |
| --- | --- | --- | --- | --- | --- | --- | --- | --- | --- | --- | --- | --- | --- | --- | --- | --- | --- | --- | --- | --- |
| CC1=CC(C)(C)Nc2ccc(Cc3ccc4c(c3)C(C)=CC(C)(C)N4)cc21 | 9.78 µM | > 100 µM | 13 µM | > 100 µM | 15.7 µM | 64.2 µM | 12.5 µM | 40.6 µM | 18.1 µM | > 100 µM | 20.3 µM | 45.2 µM | 5.67 µM | > 100 µM | 3.96 µM | > 100 µM | 21.3 µM | > 100 µM | 10.9 µM | 61.4 µM |
| Cc1nc2sc(C(=O)Nc3ccccc3)c(N)c2cc1C(O)c1ccccc1 (centres undefined) | 0.252 µM | 4.29 µM | 0.243 µM | > 100 µM | 0.411 µM | > 64.6 µM | 0.659 µM | > 100 µM | 0.314 µM | 28.8 µM | 0.376 µM | 4.99 µM | 0.597 µM | > 100 µM | 0.292 µM | > 100 µM | 0.448 µM | > 53.8 µM | 0.106 µM | 1.19 µM |
| O=C(NNc1ccccc1)c1ccc(Cl)c(Cl)c1 | – | > 86.5 µM | – | > 59.5 µM | – | > 100 µM | – | 36.2 µM | – | > 100 µM | – | 0.414 µM | – | 99.4 µM | – | > 100 µM | – | > 100 µM | – | 59.7 µM |
| COc1ccc(/C=C2\COc3ccc(O)c(O)c3C2=O)cc1OC | 2.7 µM | 7.18 µM | 1.22 µM | 2.98 µM | 1.48 µM | 5.55 µM | 2.02 µM | 5.28 µM | 1.7 µM | 17.4 µM | 2.17 µM | 6.18 µM | 2.76 µM | 18.8 µM | 0.991 µM | 7.2 µM | 5.98 µM | 39.3 µM | 2.47 µM | 8.28 µM |
| Cc1nn(Cc2ccccc2)cc1C(=O)Nc1sc2c(c1C(N)=O)CCC(=O)C2 | 2.68 µM | 8.07 µM | 1.42 µM | 2.92 µM | 2 µM | 4.86 µM | 2.12 µM | 5.2 µM | 3.36 µM | 10.1 µM | 1.67 µM | 3.76 µM | 3.03 µM | 21.7 µM | 2.62 µM | > 100 µM | 2.45 µM | > 100 µM | 3.97 µM | 28.2 µM |
| Cc1ccc(NC(=S)C#N)c(C)c1 | – | > 100 µM | – | > 100 µM | – | > 100 µM | – | > 100 µM | – | > 100 µM | – | > 100 µM | – | > 100 µM | – | > 100 µM | – | > 100 µM | – | > 100 µM |
| C[C@@H](CS[As](C)C)C(=O)N1CCC[C@H]1C(=O)O | 1.79 µM | 5.32 µM | 0.0977 µM | 0.409 µM | 0.226 µM | 1.35 µM | 0.468 µM | 5.88 µM | 0.224 µM | 0.581 µM | 0.156 µM | – | 0.723 µM | 8.53 µM | 0.482 µM | 2.43 µM | 0.897 µM | 5.11 µM | 0.804 µM | 9.67 µM |
